# According to the supplement of paper PMC10307832:
# Tests used:
# Test in all cases: relative viability (nuclei count vs DMSO), 5 days (fraction); higher = more cells survive
# YM155 + Phenformin = compound: COCC[n+]1c2c(n(Cc3cnccn3)c1C)C(=O)c1ccccc1C2=O [YM155] + N=C(N)NC(=N)NCCc1ccccc1 [Phenformin] (partner 250 µM)
# Method in brief: (§1)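 Medians of duplicate plates are given as relative viability. That measure is the nuclei count in treated wells divided by the count in vehicle wells. Counts were taken on 4× images of lung cancer cell lines in 1536-well plates, 5 days after pin-tool dosing the day after seeding with one drug alone or a fixed anchor-drug dose plus five library-drug doses (not always all listed) in √10 steps.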
# Quizartinib + Vorinostat = compound: CC(C)(C)c1cc(NC(=O)Nc2ccc(-c3cn4c(n3)sc3cc(OCCN5CCOCC5)ccc34)cc2)no1 [Quizartinib] + O=C(CCCCCCC(=O)Nc1ccccc1)NO [Vorinostat] (partner 1 µM)
# Method in brief: as §1
# Quizartinib + Bortezomib = compound: CC(C)(C)c1cc(NC(=O)Nc2ccc(-c3cn4c(n3)sc3cc(OCCN5CCOCC5)ccc34)cc2)no1 [Quizartinib] + CC(C)C[C@H](NC(=O)[C@H](Cc1ccccc1)NC(=O)c1cnccn1)B(O)O [Bortezomib] (partner 0.002 µM)
# Method in brief: as §1
# YM155 + AZD7762 = compound: COCC[n+]1c2c(n(Cc3cnccn3)c1C)C(=O)c1ccccc1C2=O [YM155] + NC(=O)Nc1cc(-c2cccc(F)c2)sc1C(=O)N[C@H]1CCCNC1 [AZD7762] (partner 0.2 µM)
# Method in brief: as §1
Cell Line,relative viability (YM155 + Phenformin; first compound 0.002 µM),relative viability (YM155 + Phenformin; first compound 0.006325 µM),relative viability (YM155 + Phenformin; first compound 0.02 µM),relative viability (YM155 + Phenformin; first compound 0.06325 µM),relative viability (Quizartinib + Vorinostat; first compound 0.003162 µM),relative viability (Quizartinib + Vorinostat; first compound 0.01 µM),relative viability (Quizartinib + Vorinostat; first compound 0.03162 µM),relative viability (Quizartinib + Vorinostat; first compound 0.1 µM),relative viability (Quizartinib + Bortezomib; first compound 0.001 µM),relative viability (Quizartinib + Bortezomib; first compound 0.003162 µM),relative viability (Quizartinib + Bortezomib; first compound 0.01 µM),relative viability (Quizartinib + Bortezomib; first compound 0.03162 µM),relative viability (Quizartinib + Bortezomib; first compound 0.1 µM),relative viability (Quizartinib + Vorinostat; first compound 0.001 µM),relative viability (YM155 + AZD7762; first compound 0.002 µM),relative viability (YM155 + AZD7762; first compound 0.006325 µM),relative viability (YM155 + AZD7762; first compound 0.02 µM),relative viability (YM155 + AZD7762; first compound 0.06325 µM)
NCI-H520,0.58,0.535,0.636,0.604,0.607,0.768,0.61,0.573,0.448,0.549,0.736,0.532,0.462,,,,,
NCI-H522,0.67,0.604,0.628,0.659,0.849,0.818,0.874,0.834,,,,,,0.803,0.699,0.854,0.961,0.991
NCI-H661,0.257,0.245,0.264,0.288,0.812,0.87,0.807,0.888,0.747,0.903,0.684,0.791,0.878,0.724,,,,
NCI-H1299,,,,,,,,,,0.985,1.01,1.02,1.04,,,,,
NCI-H1395,0.419,0.465,0.453,0.481,1.09,0.695,0.623,0.858,,,,,,0.685,0.351,0.41,0.4,0.434
NCI-H1563,0.632,0.682,0.63,0.65,,,,,0.968,0.833,0.791,,0.84,,,,,
NCI-H1623,0.599,0.6,0.643,0.604,,,,,,,,,,,,,,
NCI-H1650,0.356,0.412,0.484,0.557,0.581,0.635,,0.445,0.139,0.184,0.207,,0.191,0.499,,,,
NCI-H1703,,,,,,,,,0.418,0.269,0.16,0.18,0.256,,0.0937,0.114,0.138,0.132
NCI-H1792,,,0.285,0.523,,,,,0.783,0.947,1.01,0.793,0.952,,0.613,0.574,0.648,0.604
NCI-H1793,0.348,0.371,0.365,0.353,0.888,0.762,0.809,0.881,,,,,,0.642,0.329,0.619,0.532,0.46
NCI-H1944,0.208,0.17,0.202,0.205,0.579,0.465,0.532,0.588,,,,,,0.448,0.619,0.414,0.531,0.58
NCI-H2009,0.464,0.489,0.46,0.326,0.697,0.652,0.696,0.761,0.423,0.879,0.948,1.02,0.926,0.673,,,,
NCI-H2023,0.361,0.403,0.411,0.422,0.493,0.762,,0.772,0.777,0.947,0.942,0.751,0.926,0.61,,,,
NCI-H2170,0.416,0.4,0.413,0.408,0.803,0.808,0.89,0.867,,,,,,0.745,0.873,0.817,0.839,0.734
NCI-H2228,0.304,0.272,0.375,0.338,0.565,0.844,0.535,0.629,1.05,0.995,0.937,0.92,1.08,0.51,,,,
NCI-H2342,0.581,0.612,0.584,0.65,0.717,0.669,0.69,0.617,,,,,,0.804,0.612,0.379,0.515,0.383
SK-LU-1,0.487,0.499,0.566,0.588,0.716,0.896,0.835,0.892,0.95,1.12,1.24,0.969,1.2,0.766,,,,
SK-MES-1,0.584,0.695,0.575,0.256,1,1.2,0.586,1.03,,,,,,1.01,,,,
SW 900,0.638,0.642,0.674,0.69,0.561,0.373,0.608,0.583,,,,,,0.402,,0.543,0.825,0.64
SW 1573,0.365,0.305,0.394,0.338,0.715,0.684,,1.27,0.71,0.804,1.24,0.684,1.01,0.556,,,,
UMC-11,0.3,0.355,0.363,0.328,0.333,0.336,0.338,0.358,0.242,0.852,0.875,0.769,0.653,0.376,,,,
